Measurements as given in ChEMBL document CHEMBL4602611, “Discovery of 1,2,4-triazine-based derivatives as novel neddylation inhibitors and anticancer activity studies against gastric cancer MGC-803 cells” (Bioorg Med Chem Lett, 2020).
Calls of active or inactive are those of the source. No cut-off for these calls is given here.

What was measured:
MGC-803 [1] = assay: Antiproliferative activity against human MGC803 cells assessed as inhibition of cell growth incubated for 48 hrs by MTT assay; format: functional, cell-based; conditions: for IC50: MGC-803, 48 h
PC-3 = assay: Antiproliferative activity against human PC3 cells assessed as inhibition of cell growth incubated for 48 hrs by MTT assay; format: functional, cell-based; conditions: PC-3, 48 h
ECa-109 cell line = assay: Antiproliferative activity against human EC109 cells assessed as inhibition of cell growth incubated for 48 hrs by MTT assay; format: functional, cell-based; conditions: ECa-109, 48 h
[2] = target: T1, NEDD8-activating enzyme E1 regulatory subunit (Homo sapiens) (UniProt Q13564); assay: Inhibition of NAE-mediated neddylation in human MGC803 cells assessed as reduction in Nedd8-Cullin1 adduct formation by Western blot analysis; format: cell-based
T1 sequence (whole entry): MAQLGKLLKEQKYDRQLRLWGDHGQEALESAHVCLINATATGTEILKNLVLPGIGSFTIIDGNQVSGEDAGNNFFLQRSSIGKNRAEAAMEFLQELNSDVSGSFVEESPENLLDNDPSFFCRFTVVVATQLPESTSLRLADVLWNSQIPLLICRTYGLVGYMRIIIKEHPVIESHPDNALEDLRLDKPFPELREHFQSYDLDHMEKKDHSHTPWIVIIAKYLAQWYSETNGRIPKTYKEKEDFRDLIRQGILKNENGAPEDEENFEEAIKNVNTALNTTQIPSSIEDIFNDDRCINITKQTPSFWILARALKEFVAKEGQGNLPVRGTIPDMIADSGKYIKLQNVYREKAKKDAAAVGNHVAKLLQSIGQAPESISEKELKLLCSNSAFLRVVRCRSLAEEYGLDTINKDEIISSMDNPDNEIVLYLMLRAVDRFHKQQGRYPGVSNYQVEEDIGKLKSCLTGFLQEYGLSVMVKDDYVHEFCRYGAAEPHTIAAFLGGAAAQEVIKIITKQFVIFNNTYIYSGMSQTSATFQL

[3] = target: T1, NEDD8-activating enzyme E1 regulatory subunit (Homo sapiens); assay: Inhibition of NAE (unknown origin)-mediated neddylation assessed as decrease in Nedd8-Ubcl2 adduct formation at 10 uM by Western blot analysis
[4] = target: T1, NEDD8-activating enzyme E1 regulatory subunit (Homo sapiens); assay: Inhibition of NAE (unknown origin)-mediated neddylation assessed as decrease in Nedd8-Ubcl2 adduct formation at 5 uM by Western blot analysis
[5] = target: T1, NEDD8-activating enzyme E1 regulatory subunit (Homo sapiens); assay: (§1) Inhibition of NAE-mediated neddylation in human MGC803 cells assessed as reduction in Nedd8-Ubcl2 adduct formation incubated for 24 hrs by Western blot analysis; format: cell-based; conditions: MGC-803
[6] = target: T2, NEDD8-activating enzyme E1 regulatory subunit (Homo sapiens, UniProt Q13564); assay: as §1; format: cell-based, MGC-803
T2 sequence (Q13564 whole entry): T1 sequence (whole entry)

[7] = target: T1, NEDD8-activating enzyme E1 regulatory subunit (Homo sapiens); assay: Inhibition of NAE-mediated neddylation in human MGC803 cells assessed as reduction in Nedd8-Ubcl2 adduct formation at 5 uM incubated for 24 hrs by Western blot analysis; format: cell-based; conditions: MGC-803
[8] = target: T1, NEDD8-activating enzyme E1 regulatory subunit (Homo sapiens); assay: Inhibition of NAE-mediated neddylation in human MGC803 cells assessed as reduction in Nedd8-Ubcl2 adduct formation at 10 uM incubated for 24 hrs by Western blot analysis relative to control; format: cell-based; conditions: MGC-803
[9] = target: T1, NEDD8-activating enzyme E1 regulatory subunit (Homo sapiens); assay: Inhibition of NAE-mediated neddylation in human MGC803 cells assessed as reduction in Nedd8-Cullin3 adduct formation at 10 uM incubated for 24 hrs by Western blot analysis; format: cell-based; conditions: MGC-803
[10] = target: T1, NEDD8-activating enzyme E1 regulatory subunit (Homo sapiens); assay: Inhibition of NAE-mediated neddylation in human MGC803 cells assessed as reduction in NAE1-Nedd8 adduct formation at 10 uM incubated for 24 hrs by Western blot analysis; format: cell-based; conditions: MGC-803
MGC-803 [11] = assay: Increase in p21 protein expression in human MGC803 cells at 5 to 20 umol/l incubated for 24 hrs by Western blot analysis; format: functional, cell-based
MGC-803 [12] = assay: Increase in ATF4 protein expression in human MGC803 cells at 5 to 20 umol/l incubated for 24 hrs by Western blot analysis; format: functional, cell-based
MGC-803 [13] = assay: Increase in CHOP protein expression in human MGC803 cells at 5 to 20 umol/l incubated for 24 hrs by Western blot analysis; format: functional, cell-based
MGC-803 [14] = assay: Increase in DR5 protein expression in human MGC803 cells at 5 to 20 umol/l incubated for 24 hrs by Western blot analysis; format: functional, cell-based
MGC-803 [15] = assay: Increase in Noxa protein expression in human MGC803 cells at 5 to 20 umol/l incubated for 24 hrs by Western blot analysis; format: functional, cell-based
MGC-803 [16] = assay: Inhibition of colony formation in human MGC803 cells at 0.5 uM incubated for 7 days by crystal violet staining based assay; format: functional, cell-based
MGC-803 [17] = assay: Induction of cell cycle arrest in human MGC803 cells assessed as accumulation in G2/M phase at 5 to 20 umol/l incubated for 24 hrs by propidium iodide staining based flow cytometric analysis; format: functional
MGC-803 [18] = assay: Induction of cell cycle arrest in human MGC803 cells assessed as fold change in accumulation in G2/M phase at 5 to 20 umol/l incubated for 24 hrs by propidium iodide staining based flow cytometric analysis relative to control; format: functional
MGC-803 [19] = assay: Downregulation of Cyclin B1 protein expression in human MGC803 cells at 5 to 20 umol/l incubated for 24 hrs by Western blot analysis; format: functional, cell-based
MGC-803 [20] = assay: Downregulation of CDK1 protein expression in human MGC803 cells at 5 to 20 umol/l incubated for 24 hrs by Western blot analysis; format: functional, cell-based
MGC-803 [21] = assay: Induction of apoptosis in human MGC803 cells at 5 to 20 umol/l incubated for 48 hrs by AnnexinV-FITC/PI staining based flow cytometric analysis relative to control; format: functional
MGC-803 [22] = assay: Upregulation in Bax protein expression in human MGC803 cells at 5 to 20 umol/l incubated for 48 hrs by Western blot analysis; format: functional, cell-based
MGC-803 [23] = assay: Downregulation of XIAP protein expression in human MGC803 cells at 5 to 20 umol/l incubated for 48 hrs by Western blot analysis; format: functional, cell-based
MGC-803 [24] = assay: Induction of apoptosis in human MGC803 cells assessed as increase in cleaved caspase9 expression at 5 to 20 umol/l incubated for 48 hrs by Western blot analysis; format: functional, cell-based
MGC-803 [25] = assay: Induction of apoptosis in human MGC803 cells assessed as increase in cleaved caspase3 expression at 5 to 20 umol/l incubated for 48 hrs by Western blot analysis; format: functional, cell-based
MGC-803 [26] = assay: Induction of apoptosis in human MGC803 cells assessed as increase in cleaved PARP expression at 5 to 20 umol/l incubated for 48 hrs by Western blot analysis; format: functional, cell-based
MGC-803 [27] = assay: Antiproliferative activity against human MGC803 cells assessed as inhibition of cell growth at 10 umol/l measured within 48 hrs of incubation by MTT assay; format: functional, cell-based
MGC-803 [28] = assay: Antiproliferative activity against human MGC803 cells assessed as fold increase in cell growth at 10 umol/l incubated for 48 hrs by MTT assay relative to control; format: functional

SMILES: COc1cc(Nc2nnc(Cl)c(Nc3cc(OC)c(OC)c(OC)c3)n2)cc(OC)c1OC
- IC50 (MGC-803 [1]): 24.3 µM
- IC50 (PC-3): 34.3 µM
- IC50 (ECa-109 cell line): > 50 µM

SMILES: COc1cc(Nc2nc(Cl)nnc2Cl)cc(OC)c1OC
- inhibition ([2]; MGC-803): Dose-dependent effect

SMILES: O=c1[nH]cc(F)c(=O)[nH]1 [FLUOROURACIL]
- IC50 (ECa-109 cell line): 21.2 µM

SMILES: COc1cc(Nc2nc(Nc3ccc(C(N)=O)cc3)nnc2Cl)cc(OC)c1OC
- IC50 (MGC-803 [1]): 15.2 µM
- IC50 (PC-3): 32.1 µM
- IC50 (ECa-109 cell line): 42.4 µM

SMILES: NS(=O)(=O)OC[C@@H]1C[C@@H](n2ccc3c(N[C@H]4CCc5ccccc54)ncnc32)C[C@@H]1O
- inhibition [3]: Active

SMILES: CCOC(=O)c1ccc(Nc2nnc(Cl)c(Nc3cc(OC)c(OC)c(OC)c3)n2)cc1
- IC50 (MGC-803 [1]): 53.6 µM
- IC50 (PC-3): 58.5 µM
- IC50 (ECa-109 cell line): 46.6 µM

SMILES: COc1cc(Nc2nc(Nc3ccc4[nH]ccc4c3)nnc2Cl)cc(OC)c1OC
- inhibition (MGC-803 [1]): Dose-dependent effect
- IC50 (MGC-803 [1]): 8.22 µM
- IC50 (PC-3): 9.28 µM
- IC50 (ECa-109 cell line): 9.64 µM
- inhibition ([2]; MGC-803, TDE = time-dependent effect): Tde
- inhibition [4]: Active
- inhibition [5]: Dose-dependent effect
- EC50 [6]: 3.56 µM
- inhibition [7]: Active
- inhibition [8]: 100%
- inhibition [9]: Active
- inhibition [10]: Active
- Activity (MGC-803 [11]): Active
- Activity (MGC-803 [12]): Active
- Activity (MGC-803 [13]): Active
- Activity (MGC-803 [14]): Active
- Activity (MGC-803 [15]): Active
- inhibition (MGC-803 [16]): Active
- Activity (MGC-803 [17]): Active
- fold change (FC) (MGC-803 [18]): 2
- inhibition (MGC-803 [19]): Active
- inhibition (MGC-803 [20]): Active
- Activity (MGC-803 [21]): 60%
- Activity (MGC-803 [22]): Active
- inhibition (MGC-803 [23]): Active
- Activity (MGC-803 [24]): Active
- Activity (MGC-803 [25]): Active
- Activity (MGC-803 [26]): Active
- Activity (MGC-803 [27]): Active
- fold change (FC) (MGC-803 [28]): 1.3

SMILES: COc1cccc(Nc2nnc(Cl)c(Nc3cc(OC)c(OC)c(OC)c3)n2)c1
- IC50 (MGC-803 [1]): 16.5 µM
- IC50 (PC-3): 11.3 µM
- IC50 (ECa-109 cell line): 15.9 µM

SMILES: COc1cc(Nc2nc(Nc3ccc(Cl)cc3)nnc2Cl)cc(OC)c1OC
- IC50 (MGC-803 [1]): 12.6 µM
- IC50 (PC-3): 9.61 µM
- IC50 (ECa-109 cell line): 32.6 µM

SMILES: COc1cc(Nc2nc(Nc3ccccc3)nnc2Cl)cc(OC)c1OC
- IC50 (MGC-803 [1]): 8.75 µM
- IC50 (PC-3): 9.75 µM
- IC50 (ECa-109 cell line): 12.6 µM

SMILES: COc1cc(Nc2nc(Nc3ccc(C(C)=O)cc3)nnc2Cl)cc(OC)c1OC
- IC50 (MGC-803 [1]): 13 µM
- IC50 (PC-3): 38.6 µM
- IC50 (ECa-109 cell line): 36.3 µM

SMILES: COc1ccc(Nc2nnc(Cl)c(Nc3cc(OC)c(OC)c(OC)c3)n2)cc1
- IC50 (MGC-803 [1]): 18.9 µM
- IC50 (PC-3): 13.5 µM
- IC50 (ECa-109 cell line): 22.3 µM

SMILES: COc1cc(Nc2nc(Nc3ccc(Br)cc3)nnc2Cl)cc(OC)c1OC
- IC50 (MGC-803 [1]): 11.3 µM
- IC50 (PC-3): 8.99 µM
- IC50 (ECa-109 cell line): 41.6 µM

SMILES: COc1cc(Nc2nc(Nc3ccc(C)cc3)nnc2Cl)cc(OC)c1OC
- IC50 (MGC-803 [1]): 19.8 µM
- IC50 (PC-3): 14.3 µM
- IC50 (ECa-109 cell line): 27.3 µM

SMILES: COc1cc(Nc2nc(Nc3ccc4c(ccn4C)c3)nnc2Cl)cc(OC)c1OC
- IC50 (MGC-803 [1]): 28.1 µM
- IC50 (PC-3): 48.5 µM
- IC50 (ECa-109 cell line): 42.1 µM
